Patent US9393288B2, “Methods of treating diseases associated with PPARγ” (The University of Vermont and State Agricultural College, priority 2012, dated 2016)

Key:
[1] = test system: middle cerebral arteries (MCA); test: Pressurized arteriograph: structure of MCA from female SHR; assay type: in vivo, rat; conditions: SHR-F-Rln vs untreated SHR-F
Description: A separate group of SHR-F was used to determine if relaxin crosses the BBB by treating with relaxin (4 μg/hr) for 14 days and measuring relaxin concentration in cerebrospinal fluid (CSF) and serum (SHR-F-Rln-CSF, n=4). For the osmotic pump implant, animals were anesthetized with 3% isoflurane and minipumps implanted subcutaneously in the back of the neck. All animals received post-surgical analgesia (buprenorphine, 50 μg/kg, s.c.). Relaxin infusion was continuous for 14 days until animals were euthanized for isolated vessel experiments and tissue collection.
After collecting trunk blood, the brain was quickly removed and placed in cold physiological salt solution (PSS). […] Temperature and pH were continuously measured and maintained at 37.0±0.5° C. and 7.40±0.05, respectively. […]
PA and MCA were equilibrated for 1 hour, after which myogenic activity was determined by stepwise increases in pressure from 40 to 100 mmHg for PA or 50 to 175 mmHg for MCA. ID and WT were measured at each pressure once stable. […] To obtain structural measurements, ID and WT were recorded at pressures between 5 to 200 mmHg for PA or 5 to 175 mmHg for MCA in zero-calcium PSS containing ethylene glycol tetra-acetic acid (EGTA) and outer diameter (OD) and distensibility calculated.
Percent tone was calculated as percent decrease in ID from the passive diameter at each intravascular pressure: [1−(IDactive/IDpassive)]×100. […]

VEGF = VEGF expression in brain cortex (immunohistochemistry and qPCR), SHR; assay type: in vivo, rat; conditions: SHR-F-Rln vs SHR-F
Description: After dissecting PA and MCA for isolated vessel experiments, the remaining MCA, PA, and brain cortex from the MCA territory of 4-6 rats were collected and stored at −80° C. in RNase inhibitor (1 unit/μl, RiboLock, Fermentas, Glen Burnie, Md., USA) to determine mRNA expression levels of target genes using real-time qPCR methods. Target genes were assessed using Assays on Demand from Applied Biosystems. […] All primers were designed across an exon-exon junction to avoid detecting genomic DNA, so no DNase treatment was required. Housekeeping gene β-actin was used in all qPCR experiments as a control. Standard techniques for real-time qPCR were performed by the Vermont Cancer Center DNA analysis facility at the University of Vermont, as described previously (Cipolla, M. J., Smith, J., Kohlmeyer, M. M., and Godfrey, J. A. (2009) SKCa and IKCa Channels, myogenic tone, and vasodilator responses in middle cerebral arteries and parenchymal arterioles: effect of ischemia and reperfusion. Stroke 40, 1451-1457).
To investigate the mechanisms by which relaxin causes selectively remodeling of PA, mRNA expression of VEGF, MMP-2, and MMP-9 were compared between MCA, PA, brain cortex. To determine if relaxin activates peroxisome proliferator-activated receptor-gamma (PPARγ), expression levels of PPARγ target genes fatty acid binding protein-4 (FABP4) and plasminogen activator inhibitor-1 (PAI-1) were determined in mesenteric adipose tissue. Expression levels of PPARγ and its target genes PAI-1 and liver X receptors-α (LXR-α) were also determined in brain cortex (Chan, S. L., and Cipolla, M. J. (2012) Determination of PPARgamma activity in adipose tissue and spleen. J Immunoassay Immunochem 33, 314-324).
Brain cortex from the MCA region from WKY-F, SHR-F and SHR-F-Rln groups was collected and fixed in 4% formaldehyde for 48 hours at 4° C. and embedded in paraffin. Brain cortex was cut into 5 μm sections. […] Staining intensity was assessed using a semi-quantitative scoring system from 0 (lowest staining intensity) to 5 (highest staining intensity) in a blinded fashion. […]

For relaxin, the “Structure of MCA (passive ID, WT, distensibility)” value [1] was “no effect”, the “VEGF mRNA expression in brain cortex” value (VEGF) was “increased” and the “VEGF immunoreactivity (staining intensity) in brain cortex” value (VEGF; p<0.05) was “significantly increased”. For the same substance, the “VEGF mRNA expression in brain cortex” value (VEGF; listed as Relaxin) was “significantly increased”.
